# Patent publication US20050038112A1, “Simplified sarcondictyn derivatives as anti-tumor agents” (priority 2001, published 2005)
# Where two headings read alike, the source gives them in different places.
# Experiments:
# [1] = system: Human colon carcinoma HCT116 cells; assay: Cytotoxicity on HCT116 tumor cell line; type: cell-based
# A2780 cells = assay: Cytotoxicity (SRB colorimetric assay) on A2780 cells; type: cell-based; settings: 72 h incubation, concentration inhibiting cell proliferation by 50%
# Method: (§1) A2780 cells (2000/well) were seeded in multiwell plates (96 wells) in the presence of 200 μl of the complete medium RPMI 1640+10% FCS. After 24 h, the cells were treated with the compounds: the compounds' solution (200×) was prepared in DMSO 100% and 1 μl/well was added. 5 scalar concentrations for each compound were tested in four replicates. The cells were incubated at 37° C., 5% CO2 for 72 h.
# (§2) Colorimetric assay (SRB: sulforhodamine B): cell cultures were fixed with trichloroacetic acid, stained with 0.4% SRB dissolved in 1% acetic acid. Unbound dye was removed by four washes with 1% acetic acid and protein-bound dye was extracted with 10 mM Tris base for determination of optical density in a 96-well microtiter plate reader. IC50 and IC90 (concentration inhibiting cell proliferation by 50 or 90%) were determined by data analysis in the Microsoft Excel 97 program.
# [2] = system: Human colon carcinoma HT29 cells; assay: Cytotoxicity on HT29 tumor cell line; type: cell-based
# Method: as §1, §2
# Human colon carcinoma HT29 cells were also used to study the cytotoxicity of the compounds of the present invention.
# Pig brain tubulin = target: T1, Pig brain tubulin (Sus scrofa, UniProt P02554); assay: Microtubule assembly and disassembly assay (tubulin polymerizing activity); type: biochemical; settings: 0.5 mg/ml tubulin, 37° C., turbidity at 340 nm; for EC50: effective dose that induces 50% tubulin polymerisation, read-out: ED50 (the source's name); for ED90: effective dose that induces 90% tubulin polymerisation
# T1 construct: Pig brain tubulin was prepared by two cycles of assembly and disassembly; from tissue; host or cells: pig brain
# T1 sequence (P02554 whole entry): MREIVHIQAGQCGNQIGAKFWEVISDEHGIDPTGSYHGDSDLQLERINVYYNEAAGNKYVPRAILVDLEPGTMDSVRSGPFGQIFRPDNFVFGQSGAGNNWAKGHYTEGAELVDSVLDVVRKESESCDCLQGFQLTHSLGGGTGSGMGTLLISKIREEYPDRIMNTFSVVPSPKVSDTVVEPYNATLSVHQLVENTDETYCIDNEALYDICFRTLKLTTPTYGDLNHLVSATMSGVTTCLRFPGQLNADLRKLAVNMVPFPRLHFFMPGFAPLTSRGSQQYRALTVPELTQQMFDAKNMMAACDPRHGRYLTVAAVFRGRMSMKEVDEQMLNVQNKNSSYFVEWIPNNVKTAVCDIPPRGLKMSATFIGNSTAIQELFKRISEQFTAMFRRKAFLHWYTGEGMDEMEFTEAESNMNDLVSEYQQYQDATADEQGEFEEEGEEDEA
# T1 sequence (P02550 whole entry partner): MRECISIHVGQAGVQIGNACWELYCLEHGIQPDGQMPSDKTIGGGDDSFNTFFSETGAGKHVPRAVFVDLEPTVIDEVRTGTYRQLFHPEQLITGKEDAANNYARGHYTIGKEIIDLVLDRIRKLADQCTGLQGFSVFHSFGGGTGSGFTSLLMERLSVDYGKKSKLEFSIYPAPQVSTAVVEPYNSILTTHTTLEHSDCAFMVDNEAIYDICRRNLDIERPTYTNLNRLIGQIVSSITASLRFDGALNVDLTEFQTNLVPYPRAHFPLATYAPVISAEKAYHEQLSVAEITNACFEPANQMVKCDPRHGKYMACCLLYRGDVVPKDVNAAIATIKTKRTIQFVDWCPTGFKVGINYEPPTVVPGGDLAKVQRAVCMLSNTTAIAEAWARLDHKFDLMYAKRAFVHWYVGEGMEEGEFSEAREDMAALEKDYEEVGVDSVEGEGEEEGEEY
# Method: Pig brain tubulin was prepared by two cycles of assembly and disassembly and it was stored in liquid nitrogen in Microtubule Assembly Buffer (MAB: 0.1 M MES, 2.5 mM EGTA, 0.5 mM MgSO4, 0.1 mM EDTA, 0.1 mM DTT pH 6.4). Assembly was monitored by the method of Gaskin et al. (Gaskin F, Cantor C R, Shelanski M L, 1974,: Turbidimetric studies of the in vitro assembly and disassembly of porcine neurotubules. J. Mol. Biol. 89: 737-758). The cuvette (1 cm path) containing 0.5 mg/ml tubulin and 1 mM GTP was shifted to 37° C. and continuous turbidity measurements were made at 340 nm on a spectrophotometer equipped with an automatic recorder and a thermostatically regulated sample chamber. After 30 min CaCl2 (5 mM) was added and disassembly was monitored for 10 mm as decreased turbidity. Scalar doses of test compounds were monitored at regular intervals of 15 min.
# (ED50 and ED90) was calculated on this curve.
compound,measurement,setting,value
"CO[C@H]1C=CC[C@@H](OC(=O)/C=C/c2cn(C)cn2)C[C@H]2C(C)=CC[C@H](C(C)C)[C@H]2C[C@@H]1OC(=O)C(C)(C)C [Example 27, (E)-3-(1-Methyl-1H-imidazol-4-yl)-acrylic acid [(1R,4aR,6R,10S,11S,12aR)-11-(2,2-dimethyl-propionyloxy)-1-isopropyl-10-methoxy-4-methyl-1,2,4a,5,6,7,10,11,12,12a-decahydro-benzocyclodecen-6-yl}ester]",IC50,"[1]; Homo sapiens, HCT-116",10 to 25 µM
same,IC50,A2780 cells; Homo sapiens,< 5 µM
same,IC50,"[2]; Homo sapiens, HT-29",7 µM
same,EC50,Pig brain tubulin,3000 nM
"CC(=O)O[C@@H]1C/C=C\C[C@@H](OC(=O)/C=C/c2cn(C)cn2)C[C@H]2C(C)=CC[C@H](C(C)C)[C@H]2C1 [Example 12, 3-(1-Methyl-1H-imidazol-4-yl)-acrylic acid 11-acetoxy-1-isopropyl-4-methyl-1,2,4a,5,6,7,10,11,12,12a-decahydro-benzocyclodecen-6-yl ester]",IC50,"[1]; Homo sapiens, HCT-116",12 µM
same,IC50,A2780 cells; Homo sapiens,4 µM
same,EC50,Pig brain tubulin,2000 nM
same,ED90,Pig brain tubulin,10.0 µM
"CC1=CC[C@H](C(C)C)[C@H]2CC(=O)C/C=C\C[C@@H](OC(=O)/C=C/c3cn(C)cn3)C[C@@H]12 [Example 16, (E)-3-(1-Methyl-1H-imidazol-4-yl)-acrylic acid [(1R,4aR,6R,12aR)-1-isopropyl-4-methyl-11-oxo-1,2,4a,5,6,7,10,11,12,12a-decahydro-benzocyclodecen-6-enyl]ester]",IC50,"[1]; Homo sapiens, HCT-116",35 to 60 µM
same,IC50,A2780 cells; Homo sapiens,40 µM
same,IC50,"[2]; Homo sapiens, HT-29",30 µM
same,EC50,Pig brain tubulin,200 nM
same,ED90,Pig brain tubulin,1.2 µM
C=C1C/C=C\C[C@@H](OC(=O)/C=C/c2cn(C)cn2)C[C@H]2C(C)=CC[C@H](C(C)C)[C@H]2C1 [Example 19],IC50,"[1]; Homo sapiens, HCT-116",5 µM
same,IC50,A2780 cells; Homo sapiens,4 µM
same,IC50,"[2]; Homo sapiens, HT-29",6 µM
same,EC50,Pig brain tubulin,5000 nM
same,ED90,Pig brain tubulin,16.0 µM
"CC(=O)O[C@H]1C=CC[C@@H](OC(=O)/C=C/c2cn(C)cn2)C[C@H]2C(C)=CC[C@H](C(C)C)[C@H]2C[C@@H]1OC(=O)C(C)(C)C [Example 30, (E)-3-(1-Methyl-1H-imidazol-4-yl)-acrylic acid [(1R,4aR,6R,10S,11S,12aR)-10-acetoxy-11-(2,2-dimethyl-propionyloxy)-1-isopropyl-4-methyl-1,2,4a5,6,7,10,11,12,12a-decahydro-benzocyclodecen-6-yl]ester]",EC50,Pig brain tubulin,1000 nM
same,ED90,Pig brain tubulin,1.7 µM
"CC1=CC[C@H](C(C)C)[C@H]2C[C@H](OC(=O)C(C)(C)C)[C@@H](O)C=CC[C@@H](OC(=O)C=Cc3cn(C)cn3)C[C@@H]12 [Example 34, 3-(1-Methyl-1H-imidazol-4-yl)-acrylic acid [(1R,4aR,6R,10S,10S,12aR)-11-(2,2-dimethyl-propionyloxy)-10-hydroxy-1-isopropyl-4-methyl-1,2,4a,5,6,7,10,11,12,12a-decahydro-benzocyclodecen-6-yl}ester]",IC50,[1],4 µM
same,IC50,A2780 cells,4 µM
same,IC50,[2],5 µM
same,EC50,Pig brain tubulin,1000 nM
same,ED90,Pig brain tubulin,1.8 µM
